The source of these data is PubChem BioAssay (NCI).

Some test systems named below: A498 renal; HCT-15 colon; SK-MEL-28 melanoma; A549 NSCLC; NCI-H460 lung; NCI-H23 lung; CAKI-1 renal; UO-31 renal; HS 578T breast; BT-549 breast.
Assay in all cases: DTP human tumour cell line panel, 48 h

Values joined by “and” are separate entries in the source; they are usually repeats but may differ in a detail not shown here. Equal entries are not always repeated.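 Briefly, cells in 96-well plates were exposed to five compound concentrations for 48 h, and endpoints were estimated by linear interpolation. Here, GI50 denotes the concentration required for 50% inhibition of growth. At the TGI there is no net growth.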

The term TGI denotes the concentration at which net growth stops. `N/N=C(/Cc1ccccc1)NNO`: the TGI in the experiment with A498 renal, in the experiment on HCT-15 colon, in the experiment on SK-MEL-28 melanoma, in the experiment on A549 NSCLC, with NCI-H460 lung and in the experiment on NCI-H23 lung was greater than 100 µM each time. In the experiment on CAKI-1 renal, this molecule displayed a TGI greater than 100 µM.
Consider `CC(C)(C)C#COC(=O)c1ccccc1`, for which the TGI with A498 renal, with HCT-15 colon, with UO-31 renal, in the experiment with A549 NSCLC, in the experiment with NCI-H460 lung and with NCI-H23 lung was greater than 100 µM each time. For the same molecule, the TGI in the experiment with CAKI-1 renal was greater than 100 µM.
In the case of `CN1CCCC2[C@@H]3CCC4c5nonc5CC[C@]4(C)C3CC[C@@]21C` (stereo not given in full), the TGI with HCT-15 colon, in the experiment on SK-MEL-28 melanoma, in the experiment on UO-31 renal, in the experiment with A549 NSCLC, in the experiment with NCI-H460 lung and with NCI-H23 lung was greater than 100 µM in each case. Further, the TGI in the experiment on CAKI-1 renal was greater than 100 µM.
Consider `c1ccc2c(c1)[nH]c1c2nc2ccccn21`, for which the TGI in the experiment with A498 renal, with HCT-15 colon, with SK-MEL-28 melanoma, in the experiment on UO-31 renal, with A549 NSCLC and in the experiment with NCI-H460 lung was greater than 100 µM each time. The TGI with NCI-H23 lung and in the experiment on CAKI-1 renal was greater than 100 µM in each case.
Regarding `Cn1c(=O)oc2cc(C3CCC(=O)N3Cc3csc(-c4ccccc4)n3)ccc21` (stereo not given), the TGI in the experiment on HCT-15 colon, in the experiment with SK-MEL-28 melanoma, in the experiment with UO-31 renal, in the experiment on A549 NSCLC, in the experiment on NCI-H460 lung and in the experiment with NCI-H23 lung was greater than 100 µM throughout. For the same molecule, in the experiment with CAKI-1 renal, the TGI was greater than 100 µM.
As for `Cc1ccc(C2=CC(=O)c3ccccc3C2=O)n1-c1ccccc1`, the TGI in the experiment with SK-MEL-28 melanoma, in the experiment on A549 NSCLC, in the experiment with NCI-H460 lung and in the experiment on NCI-H23 lung was greater than 100 µM throughout.
As to `Cc1cc2c(c(C(=O)O)c1C)-c1cccc(Cl)c1C2=O`, the TGI in the experiment on HCT-15 colon, in the experiment on SK-MEL-28 melanoma, in the experiment with UO-31 renal, in the experiment on A549 NSCLC, in the experiment on NCI-H460 lung and in the experiment on NCI-H23 lung was greater than 100 µM each time. This molecule also registered a TGI in the experiment with CAKI-1 renal greater than 100 µM.
Consider `COc1ccc(-c2nc3ccccc3s2)cc1OC`, for which the TGI in the experiment with HCT-15 colon is greater than 100 µM; in the experiment on SK-MEL-28 melanoma, greater than 100 µM; with UO-31 renal it was greater than 100 µM; with A549 NSCLC, greater than 100 µM; in the experiment on HS 578T breast, greater than 100 µM; in the experiment with BT-549 breast, 57.6 µM. Also, the figures for the TGI in the experiment on NCI-H460 lung and in the experiment with NCI-H23 lung were 59.8 µM and greater than 100 µM, respectively.
As to `O=c1c(Cc2ccccc2)c(O)cc2n1CCC2`, the concentration for total growth inhibition (TGI) in the experiment on A498 renal, in the experiment with HCT-15 colon, in the experiment on SK-MEL-28 melanoma, in the experiment with UO-31 renal, with A549 NSCLC and with NCI-H460 lung was greater than 100 µM each time. Besides, the TGI with NCI-H23 lung and in the experiment on CAKI-1 renal was greater than 100 µM each time.
As to `Cc1c(C)c([N+](=O)[O-])c2c(c1N)C(=O)c1ccccc1C2=O`, the total growth inhibition concentration (TGI) in the experiment with A498 renal, in the experiment on HCT-15 colon, in the experiment on SK-MEL-28 melanoma, in the experiment with UO-31 renal, in the experiment with A549 NSCLC and in the experiment with NCI-H23 lung was greater than 100 µM each time.
In the case of `O=c1c2cccnc2ncn1CCCN1CCCCC1`, the TGI with SK-MEL-28 melanoma, with UO-31 renal, with A549 NSCLC, in the experiment on NCI-H460 lung, in the experiment with NCI-H23 lung and with CAKI-1 renal was greater than 100 µM in each case.
A word on the GI50: it is the concentration giving 50% growth inhibition. As to `OCC(O)C(O)C(O)C(/C=N\Nc1ncnc2c(Br)cc(Br)cc12)=N/Nc1ncnc2c(Br)cc(Br)cc12` (stereo not given), the GI50 in the experiment on A498 renal was 22.5 µM and > 100 µM; in the experiment on UO-31 renal, 21.7 µM and > 100 µM; with A549 NSCLC, 5.04 µM and 15.4 µM. Further, the TGI in the experiment with A498 renal is 38.8 µM and > 100 µM; in the experiment on UO-31 renal, 54.2 µM and > 100 µM; in the experiment on A549 NSCLC, 21.6 µM and > 100 µM; with HS 578T breast, greater than 100 µM; in the experiment on CAKI-1 renal, 26.7 µM and > 100 µM.
In the case of `CCOc1c(Br)cc(Br)cc1C=C(C#N)C#N`, the TGI in the experiment with A498 renal was 8.8 µM; with HCT-15 colon, greater than 10 µM; with SK-MEL-28 melanoma it was greater than 10 µM; in the experiment with A549 NSCLC, greater than 10 µM; in the experiment with HS 578T breast, greater than 10 µM; in the experiment on NCI-H460 lung, greater than 10 µM. In the experiment on NCI-H23 lung, this molecule yielded a TGI greater than 10 µM.
Regarding `O=c1[nH]ccc(CNC23CC4CC(CC(C4)C2)C3)c1O`, the TGI in the experiment on A498 renal, in the experiment with HCT-15 colon, with UO-31 renal, in the experiment with A549 NSCLC, in the experiment with NCI-H460 lung and in the experiment with NCI-H23 lung was greater than 100 µM each time. Besides, in the experiment on CAKI-1 renal, the total growth inhibition concentration (TGI) is greater than 100 µM.
Regarding `O=C(c1ccccc1)C1N=NN(Cc2ccccc2[N+](=O)[O-])C1C(=O)c1ccccc1` (stereo not given), the concentration for total growth inhibition (TGI) with HCT-15 colon, in the experiment on SK-MEL-28 melanoma, in the experiment on UO-31 renal, in the experiment on A549 NSCLC, in the experiment on NCI-H460 lung and in the experiment on NCI-H23 lung was greater than 100 µM throughout. The same molecule came in with a TGI with CAKI-1 renal greater than 100 µM.
Regarding `O=C1NC(O)n2c(=O)[nH]c(=O)n21` (stereo not given), the TGI in the experiment with HCT-15 colon, in the experiment with SK-MEL-28 melanoma, with UO-31 renal, with A549 NSCLC, with NCI-H460 lung and in the experiment with NCI-H23 lung was greater than 100 µM each time. In addition, the TGI in the experiment with CAKI-1 renal was greater than 100 µM.
Take `Cc1cccc(N2C(=O)/C(=C/C(Cl)=C/c3ccc([N+](=O)[O-])cc3)SC2=S)c1C`: the GI50 is 874 nM in the experiment with HCT-15 colon; 2370 nM in the experiment on SK-MEL-28 melanoma; 1.29 µM in the experiment with UO-31 renal; 1.66 µM in the experiment with A549 NSCLC; 2800 nM with HS 578T breast; 1610 nM with BT-549 breast. Further, the GI50 with NCI-H23 lung was 1840 nM. In addition, the TGI with HCT-15 colon is 4.77 µM; with SK-MEL-28 melanoma, 7 µM; in the experiment on UO-31 renal, 2.56 µM; in the experiment with A549 NSCLC it was greater than 100 µM; in the experiment with HS 578T breast, greater than 100 µM; in the experiment on BT-549 breast it was 4.08 µM. The molecule further yielded a TGI with NCI-H23 lung of 4.38 µM.
